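Compound exposure: 48 hours, 5 concentrations, 96-well plates. GI50 marks 50% less growth. At the TGI there is no net growth.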
Assays:
Assay in all cases: DTP human tumour cell line panel, 48 h
BT-549 breast = tested on: BT-549 breast
CAKI-1 renal = tested on: CAKI-1 renal
DU-145 prostate = tested on: DU-145 prostate
MALME-3M melanoma = tested on: MALME-3M melanoma
NCI/ADR-RES ovarian = tested on: NCI/ADR-RES ovarian
OVCAR-3 ovarian = tested on: OVCAR-3 ovarian
SF-268 CNS = tested on: SF-268 CNS
SK-MEL-5 melanoma = tested on: SK-MEL-5 melanoma

For `COc1cccc(C2=C(c3cn(C)c4ccccc34)C(=O)NC2=O)c1`, the GI50 (BT-549 breast) was 11.9 µM, the TGI (BT-549 breast) was > 25 µM and the GI50 (CAKI-1 renal) was 7.9 µM. For the same compound, the TGI (CAKI-1 renal) was > 25 µM, the GI50 (DU-145 prostate) was > 25 µM and the TGI (DU-145 prostate) was > 25 µM. For the same compound, the GI50 (MALME-3M melanoma) was 14.2 µM, the TGI (MALME-3M melanoma) was > 25 µM and the GI50 (NCI/ADR-RES ovarian) was 8.43 µM. The TGI (NCI/ADR-RES ovarian) was > 25 µM, the GI50 (OVCAR-3 ovarian) was 9.05 µM and the TGI (OVCAR-3 ovarian) was > 25 µM. The GI50 (SF-268 CNS) was 16.3 µM, the TGI (SF-268 CNS) was > 25 µM and the GI50 (SK-MEL-5 melanoma) was 4.61 µM. It also gave a TGI (SK-MEL-5 melanoma) of 10.1 µM.

`CN(C)CCCNC(=O)c1cc(NC(=O)CCNS(=O)(=O)c2ccc3c(c2)C(=O)c2ccccc2C3=O)cn1C` was tested, and the GI50 (BT-549 breast) was > 100 µM, the TGI (BT-549 breast) was > 100 µM and the GI50 (CAKI-1 renal) was > 100 µM. The TGI (CAKI-1 renal) was > 100 µM, the GI50 (NCI/ADR-RES ovarian) was > 100 µM and the TGI (NCI/ADR-RES ovarian) was > 100 µM. For the same compound, the GI50 (OVCAR-3 ovarian) was > 100 µM, the TGI (OVCAR-3 ovarian) was > 100 µM and the GI50 (SF-268 CNS) was > 100 µM. For the same compound, the TGI (SF-268 CNS) was > 100 µM, the GI50 (SK-MEL-5 melanoma) was > 100 µM and the TGI (SK-MEL-5 melanoma) was > 100 µM.

In the case of `CC12CCC=CC1CCC1C2CCC2(C)C(c3ccc(=O)oc3)CCC12O` (stereo not drawn), the GI50 (BT-549 breast) is reported as 0.0391 µM, the TGI (BT-549 breast) is reported as 0.436 µM and the GI50 (CAKI-1 renal) is reported as 0.0942 µM. For the same compound, the TGI (CAKI-1 renal) was 0.548 µM, the GI50 (DU-145 prostate) was 0.0553 µM and the TGI (DU-145 prostate) was 0.165 µM. It also gave a GI50 (MALME-3M melanoma) of 0.0423 µM, a TGI (MALME-3M melanoma) of 0.204 µM and a GI50 (NCI/ADR-RES ovarian) of 0.0475 µM. For the same compound, the TGI (NCI/ADR-RES ovarian) was 0.247 µM, the GI50 (OVCAR-3 ovarian) was 0.0614 µM and the TGI (OVCAR-3 ovarian) was 0.258 µM. The GI50 (SF-268 CNS) was 0.041 µM, the TGI (SF-268 CNS) was 0.253 µM and the GI50 (SK-MEL-5 melanoma) was 0.0453 µM. It also gave a TGI (SK-MEL-5 melanoma) of 0.238 µM.

`O=C1C(Cl)=C(N/N=c2/[nH][nH]/c(=N/NC3=C(Cl)C(=O)c4ccccc4C3=O)c3ccccc23)C(=O)c2ccccc21` gave a GI50 (BT-549 breast) of 13.5 µM, a TGI (BT-549 breast) of 26.8 µM and a GI50 (CAKI-1 renal) of 17.7 µM. The TGI (CAKI-1 renal) was 41.4 µM, the GI50 (DU-145 prostate) was 17.8 µM and the TGI (DU-145 prostate) was 33.6 µM. It also gave a GI50 (NCI/ADR-RES ovarian) of 21.4 µM, a TGI (NCI/ADR-RES ovarian) of 73.2 µM and a GI50 (OVCAR-3 ovarian) of 15.6 µM. For the same compound, the TGI (OVCAR-3 ovarian) was 36.4 µM, the GI50 (SF-268 CNS) was 12.2 µM and the TGI (SF-268 CNS) was 29.9 µM. It also gave a GI50 (SK-MEL-5 melanoma) of 14.1 µM and a TGI (SK-MEL-5 melanoma) of 29.3 µM.

In the case of `O=C(O)[C@@H]1C2CC([C@@H]1C(=O)O)[C@H](N1C(=O)CCC1=O)[C@@H]2Br` (stereo partly drawn), the TGI (BT-549 breast) is reported as > 100 µM, the TGI (DU-145 prostate) is reported as > 100 µM and the TGI (MALME-3M melanoma) is reported as > 100 µM. For the same compound, the TGI (NCI/ADR-RES ovarian) was > 100 µM, the TGI (OVCAR-3 ovarian) was > 100 µM and the TGI (SF-268 CNS) was > 100 µM. The TGI (SK-MEL-5 melanoma) was > 100 µM.

With `CCN(CC)c1ccc(/C=C/c2cc(C)c3ccccc3n2)cc1` the GI50 (BT-549 breast) was 10.3 µM, the TGI (BT-549 breast) was 62.9 µM and the GI50 (CAKI-1 renal) was 1.93 µM. The TGI (CAKI-1 renal) was 13.4 µM, the GI50 (DU-145 prostate) was 3.43 µM and the TGI (DU-145 prostate) was 15.3 µM. It also gave a GI50 (MALME-3M melanoma) of 3.39 µM, a TGI (MALME-3M melanoma) of 22.8 µM and a GI50 (NCI/ADR-RES ovarian) of 1.93 µM. It also gave a TGI (NCI/ADR-RES ovarian) of 16.3 µM, a GI50 (OVCAR-3 ovarian) of 1.82 µM and a TGI (OVCAR-3 ovarian) of 4.78 µM. For the same compound, the GI50 (SF-268 CNS) was 5.46 µM, the TGI (SF-268 CNS) was 74.4 µM and the GI50 (SK-MEL-5 melanoma) was 3.1 µM. For the same compound, the TGI (SK-MEL-5 melanoma) was 11.8 µM.

For `CCc1ccc(NC(=O)Nc2c[nH]c3ccccc23)cc1`, the GI50 (BT-549 breast) was 1.68 µM, the TGI (BT-549 breast) was > 23.8 µM and the GI50 (CAKI-1 renal) was 3.59 µM. The TGI (CAKI-1 renal) was > 42 µM, the GI50 (DU-145 prostate) was > 34 µM and the TGI (DU-145 prostate) was > 51.5 µM. The GI50 (MALME-3M melanoma) was 8 µM, the TGI (MALME-3M melanoma) was > 49.4 µM and the GI50 (NCI/ADR-RES ovarian) was 14.2 µM. For the same compound, the TGI (NCI/ADR-RES ovarian) was > 62.8 µM, the GI50 (OVCAR-3 ovarian) was 2.47 µM and the TGI (OVCAR-3 ovarian) was > 32.2 µM. The GI50 (SF-268 CNS) was 4.24 µM, the TGI (SF-268 CNS) was > 43.4 µM and the GI50 (SK-MEL-5 melanoma) was 32.7 µM. For the same compound, the TGI (SK-MEL-5 melanoma) was > 54.1 µM.

Work on `CCN=C1C=CC(=C(c2ccc(N(C)C)cc2)c2ccc(N(C)C)cc2)c2ccccc21` yielded a GI50 (BT-549 breast) of 0.0868 µM, a TGI (BT-549 breast) of 0.489 µM and a GI50 (CAKI-1 renal) of 0.2 µM. The TGI (CAKI-1 renal) was 0.52 µM, the GI50 (DU-145 prostate) was 0.0829 µM and the TGI (DU-145 prostate) was 0.357 µM. The GI50 (MALME-3M melanoma) was 0.026 µM, the TGI (MALME-3M melanoma) was 0.0855 µM and the GI50 (NCI/ADR-RES ovarian) was 0.636 µM. It also gave a TGI (NCI/ADR-RES ovarian) of 3.94 µM, a GI50 (OVCAR-3 ovarian) of 0.0301 µM and a TGI (OVCAR-3 ovarian) of 0.121 µM. It also gave a GI50 (SF-268 CNS) of 0.114 µM, a TGI (SF-268 CNS) of 0.981 µM and a GI50 (SK-MEL-5 melanoma) of 0.0609 µM. It also gave a TGI (SK-MEL-5 melanoma) of 0.213 µM.
